These results are taken from US20120052099A1, “PHARMACEUTICAL COMPOSITION CONTAINING ARBIDOL IN THE FORM OF PHOSPHOLIPID NANOPARTICLES” (priority 2009, published 2012).

Entries after “also recorded” stand apart in the source; their conditions may differ. Structures can show the parent of a compound that is named as a salt.

Data set [1] can be described thus: Bioaccessibility (pharmacokinetics) after peroral administration in rats. The format is in vivo. Also on record: area (chromatogram peak), blood: unit not given here. The note with it: 25 mg/kg. The procedure: 1. The content of an NF Arbidol flask was dissolved in 5 ml. (A) 2. An Arbidol solution was prepared at a concentration of 5 mg/ml (suspension in water). (B) 3. Feed was withdrawn from the animals, leaving them water only, 24 hours before the experiment, and the animals were weighed on the day of the experiment. 4. 1 ml of solution A and B was administered perorally to the rats. 5. Blood was collected at intervals of 5, 10, 15, 30, and 45 minutes into eppendorfs containing EDTA. After an eppendorf was filled, it was shaken intensively. 6. Blood treatment: 900 μl of methanol was added to 100 μl of blood and agitated intensively for 3 to 5 minutes. The mixture was centrifuged to cause sedimentation of proteins. It was then analyzed by high-performance liquid chromatography for presence of Arbidol in the samples.
The dose administered was 25 mg/kg.

The test system of another data set is whole blood. Briefly: Hemolysis on addition to whole blood in vitro. The settings on record: 50 μl of 5 mg/ml Arbidol added to 950 μl whole blood, 37° C., 20 minutes. The class given is cell-based.
The conditions of data set [2]: used internally; cited from earlier work.
The conditions of data set [3]: cited from earlier work.
[4] abbreviates: 10 minutes after administration.
[5] abbreviates: 15 minutes after administration.
Setting [6] is: 30 minutes after administration.

For the compound `CCOC(=O)c1c(CSc2ccccc2)n(C)c2cc(Br)c(O)c(CN(C)C)c12` [Arbidol, ethyl ester of 6-bromo-5-hydroxy-1-methyl-4-dimethylaminomethyl-2-phenylthiomethylindole-3-carbonic acid hydrochloride monohydrate], the “area (chromatogram peak), blood” value is given as 0/0 in data set [1] (5 minutes after administration), 1.2 in data set [1] (setting [4]), 7.69 in data set [1] (setting [5]) and 1.6 in data set [1] (setting [6]). The concentration in blood in data set [1] (5 minutes after administration) was 0/0 μg/ml; in data set [1] (setting [4]), 0.3 µg/mL; in data set [1] (setting [5]), 2.4 µg/mL; in data set [1] (setting [6]) it was 0.4 µg/mL. Also, the “Hemolysis if added to whole blood” value with whole blood is “causes hemolysis”. Besides, the T1/2 result in data set [2] is on record as “approximately 17 hours”. Besides, the solubility in ethanol entry in data set [3] (ethanol) is “dissolved only slightly in ethanol”. Besides, the solubility in water entry in data set [3] (water, hydrochloride monohydrate) is “practically insoluble in water; also recorded: not soluble in water; also recorded: not dissolved in water”.
